Measured values: patent publication US20040223946A1, “Adhesive treatment for insect and related bites” (Closure Medical Corporation, priority 2003, published 2004)

Experiment: Observation of the monomer composition about one minute and at least twenty-four hours after preparation
Type: physicochemical
Conditions: 1 wt % in 2 mL 2-octyl cyanoacrylate monomer
Procedure: A 2-octyl cyanoacrylate monomer composition is prepared by adding 1 wt % menthol to 2 mL of 2-octyl cyanoacrylate monomer. The mixture is stirred.
The characteristics of the composition are observed at about one minute after preparation and later at least twenty-four hours after preparation.

solubility of the additive in 2-octyl cyanoacrylate monomer: soluble in the monomer
Structure (SMILES): CC1CCC(C(C)C)C(O)C1 (stereo not shown) [menthol]
